# Measured values: patent US8236488B2, “Method of screening for therapeutic compounds for vascular disorders and hypertension based on URAT1 activity modulation” (Human Cell Systems, Inc., priority 2003, dated 2012)
# Legend:
# Assay type in all cases: cell-based
# rat VSMCs [1] = assay: 14C-urate uptake into rat VSMCs in the presence of inhibitors or other organic anions; details: 20 μM 14C-urate, 37° C., 5 minutes; for uric acid uptake into VSMCs in the presence of another organic anion: 100, 250 or 500 μM PAH or lactate; for uric acid uptake into VSMCs in the presence of organic anion transporter inhibitor: 0.1, 0.5 or 1 mM probenecid or 0.5, 1 or 10 μM benzbromarone
# Method: Further, the present inventors examined a mechanism of urate uptake under physiologic conditions (polarized conditions). First, the present inventors examined whether ^14C-urate competed with cold urate for uptake. The ^14C-urate uptake level by rat VSMCs was measured at 37° C. for 5 minutes using an uptake solution containing 20 μM ^14C-urate and 0, 0.1, 1, 5, 10, or 50 mg/dL cold urate. Each of the measurement results is the average±standard deviation of three wells. […] In FIG. 2, a vertical axis represents the ratio (%) of ^14C-urate uptake level determined when the ^14C-urate uptake level in the absence of cold urate is defined as 100%. A horizontal axis represents the concentration of cold urate (mg/dL).
# The ^14C-urate uptake level was measured at 37° C. for 5 minutes using an uptake solution containing 20 μM ^14C-urate and 0, 0.1, 0.5 or 1 mM probenecid or 0, 0.5, 1 or 10 μM benzbromarone. Each of the measurement results is the average±standard deviation of three wells. […] In FIGS. 3 and 4, a vertical axis represents the ratio (%) of ^14C-urate uptake level determined when the ^14C-urate uptake level in the absence of probenecid (FIG. 3) or benzbromarone (FIG. 4) is defined as 100%. A horizontal axis in FIG. 3 represents the concentration of probenecid (mM), and a horizontal axis in FIG. 4 represents the concentration of benzbromarone (μM). An asterisk (*) in the FIGS. 3 and 4 indicate that there is a significant difference (p<0.05)
# Further, another test was carried out to examine whether ^14C-urate competed with an organic anion such as para-amino hippurate (PAH) or lactate for uptake. The ^14C-urate uptake level by rat VSMCs was measured at 37° C. for 5 minutes using an uptake solution containing 20 μM ^14C-urate and 0, 100, 250 or 500 μM PAH or 0, 100, 250 or 500 lactate. In addition, the ^14C-urate uptake level by rat VSMCs was also measured using an uptake solution containing 20 μM ^14C-urate and 250 μM uric acid (UA). Each of the measurement results is the average±standard deviation of three wells. […] In FIGS. 5 and 6, a vertical axis represents the ratio (%) of ^14C-urate uptake level determined when the ^14C-urate uptake level in the absence of PAH (FIG. 5) or lactate (FIG. 6) is defined as 100%. A horizontal axis in FIG. 5 represents the concentration of PAH (μM), and a horizontal axis in FIG. 6 represents the concentration of lactate (μM). An asterisk (*) in FIGS. 5 and 6 indicate that there is a significant difference (p<0.05).
# (§1) In the following experiments, vascular smooth muscle cells (VSMCs) derived from rat aorta were used (see Zhang S, Yang Y, et al., Circulation., 2003; 107, 1539-44). These cells were cultured in Dulbecco' s Modified Eagle Medium (DMEM, GIBCO) containing 10% fetal bovine serum (FBS), 1% glutamine, and 1% penicillin/streptomycin solution (100 units/ml penicillin, 100 μg/mL streptomycin; GIBCO). The cultured VSMCs were transferred into wells of a 35-mm six-well culture plate (NUNC), and were then maintained at 37° C. in an atmosphere of 5% carbon dioxide and 95% air in a humidified tissue culture incubator. The culture medium was replaced every 2 days. The VSMCs used in the experiments were 5th to 12th generation cells.
# The VSMCs (4×10^5 cells) were transferred into wells of a six-well culture plate together with 10% FBS-DMEM. After a lapse of one day, the VSMCs were placed in DMEM medium without serum and incubated over night to stop growth. In all the experiments, cells and all the solutions used were maintained at 37° C. […]
# rat VSMCs [2] = assay: VSMC proliferation test (3H-thymidine uptake); details: 24 hour incubation; for effect of inhibitor alone on cell proliferation: absence of uric acid
# Method: Next, the present inventors examined whether an inhibitor of organic anion transportation inhibited the response of VSMC proliferation. Proliferation of VSMCs after 24 hour incubation was determined by measuring the ^3H-thymidine uptake level. This test was carried out for cases where no uric acid (UA) was present, 3 mg/dL uric acid (UA) was present, 3 mg/dL uric acid and 0.1, 0.5 or 1 mM probenecid were present, and 3 mg/dL uric acid (UA) and 0.5, 1 or 10 μM benzbromarone were present. In addition, the test was also carried out for cases where probenecid was present alone and benzbromarone was present alone. Each of the measurement results is the average±standard deviation of three wells (CPM). FIGS. 7 and 8 show the result of the test carried out to examine the effect of probenecid (FIG. 7) or benzbromarone (FIG. 8) on inhibition of response of VSMC proliferation. In FIGS. 7 and 8, a vertical axis represents the ^3H-thymidine uptake (CPM) level, a horizontal axis represents the concentration of uric acid or the concentration of an inhibitor.
# as §1
# The VSMCs (4×10^5 cells) were transferred into wells of a six-well culture plate together with 10% FBS-DMEM, and were cultured for 24 hours. Then, the cells were starved for 48 hours in 0.5% FBS-DMEM, and the resting VSMCs were stimulated with 3 mg/dL uric acid containing 1 μCi ^3H-thymidine to detect DNA synthesis. Further, 2 μCi/mL ^3H-thymidine was added to each well 2 hours before harvesting the cells. The cells were washed with ice-cooled PBS three times, and were lysed in 1 mL of 1N NaOH. 0.5 mL of the cell lysate was added to 5 mL of scintillation fluid to measure the ^3H-thymidine uptake level by the cells. The ^3H-thymidine uptake level by the cells was expressed as CMP/well and counted in a liquid scintillation counter. Some experiments were carried out in the presence of different concentrations of probenecid or benzbromarone (organic anion transporter inhibitor).
# MCP-1 = assay: ELISA of MCP-1 protein secreted into culture supernatant of rat VSMCs; details: 24 hours
# Method: The present inventors have already reported that uric acid induces the production of MCP-1 (see Non-Patent Document 8). The production of MCP-1 in VSMC was examined. Rat VSMCs were cultured for 24 hours, and the amount of MCP-1 secreted into culture supernatant was measured by ELISA. A test was carried out for cases where 3 mg/dL uric acid (UA) was present, 3 mg/dL uric acid and 1 mM probenecid were present, and probenecid was present alone. In FIG. 10, a vertical axis represents the amount of MCP-1 (pg/1000 cells), and a horizontal axis represents cases where nothing was present (No UA), 3 mg/dL uric acid was present (UA), 3 mg/dL uric acid and 1 mM probenecid were present (UA+Prob), and probenecid was present alone (Prob), and two asterisks (**) indicate that there is a significant difference (p<0.05) when compared to a control. […] The VSMCs (5×10^4 cells/well) were placed in wells of a 24-well plate, and serum was deprived after reaching 70% confluence. Then, media with or without 3 mg/dL uric acid was added and the cells were cultured for 24 hours in the presence or absence of 1 mM probenecid. The amount of MCP-1 protein contained in supernatant was measured by ELISA (OptEIA MCP-1 set, BD Pharmingen), and corrected for cell number. Each experiment was repeated three times.
# rat VSMCs [3] = assay: Urate uptake into VSMCs under polarized and depolarized conditions; details: 20 μM 14C-urate
# Method: Urate uptake into vascular smooth muscle cells (VSMCs) was examined under polarized and depolarized conditions. The ^14C-urate uptake level by VSMCs was measured using an uptake solution containing 20 μM ^14C-urate under polarized conditions (HEPES-physiological saline solution) or depolarized conditions (100 mM KCl uptake solution) for 120 minutes. The ^14C-urate uptake level was measured every one minute. Each of the measurement results is the average±standard deviation of three wells. In FIG. 1, a vertical axis represents the ^14C-urate uptake (CPM) level, a horizontal axis represents time (min), the symbol “□” represents a case where urate uptake was examined under depolarized conditions, and the symbol “♦” represents a case where urate uptake was examined under polarized conditions. […] It can be known that urate is rapidly taken up by rat VSMCs, that under depolarized conditions, urate uptake reaches steady state within about 15 minutes, and that under polarized conditions, urate uptake reaches steady state within about 30 minutes.
# Further, in still another experiment, urate uptake was examined under polarized or depolarized conditions to determine whether urate uptake was voltage sensitive. The conditions for the experiment were the same as described above except that a culture solution for polarized conditions and a culture solution for depolarized conditions were different. More specifically, after 12 hour starvation, the serum free medium was removed and replaced with 0.45 mL of HEPES-physiological saline solution (PSS) containing 140 mM NaCl, 4 mM KCl, 2 mMCaCl2, 1 mM MgCl2, 5 mM glucose, and 16 mM HEPES-tris (pH 7.4) for polarized conditions, or 100 mM-KCl uptake solution containing 44 mM NaCl, 100 mM KCl, 2 mM CaCl2, 1 mM MgCl2, 5 mM glucose, and 16 mM HEPES-tris (pH 7.4) for depolarized conditions.
smiles,measurement,setting,value
"Nc1ccc(C(=O)NCC(=O)O)cc1 [PAH, para-amino hippurate]",uric acid uptake into VSMCs in the presence of another organic anion,rat VSMCs [1],inhibited
CCc1oc2ccccc2c1C(=O)c1cc(Br)c(O)c(Br)c1 [benzbromarone],effect of inhibitor alone on cell proliferation,rat VSMCs [2],The same was observed
same,uric acid uptake into VSMCs in the presence of organic anion transporter inhibitor,rat VSMCs [1],concentration-dependently reduced
CC(O)C(=O)O (centres unmarked) [lactate],uric acid uptake into VSMCs in the presence of another organic anion,rat VSMCs [1],more weakly inhibited
CCCN(CCC)S(=O)(=O)c1ccc(C(=O)O)cc1 [probenecid],uric acid-induced increase in the 3H-thymidine uptake level (VSMC proliferation),rat VSMCs [2]; 3 mg/dL uric acid plus inhibitor,concentration-dependently inhibited
same,effect of inhibitor alone on cell proliferation,rat VSMCs [2],little effect on cell proliferation
same,uric acid uptake into VSMCs in the presence of organic anion transporter inhibitor,rat VSMCs [1],concentration-dependently reduced
same,increase in uric acid-induced production of MCP-1,MCP-1; 3 mg/dL uric acid and 1 mM probenecid,inhibited
same,production of MCP-1 with inhibitor alone,"MCP-1; probenecid alone, no uric acid",not inhibited
O=c1[nH]c(=O)c2[nH]c(=O)[nH]c2[nH]1 [uric acid],"urate uptake level, depolarized versus polarized conditions",rat VSMCs [3]; up to 120 minutes,larger under depolarized conditions than under polarized conditions
same,time until urate uptake reaches steady state,rat VSMCs [3]; depolarized conditions (100 mM KCl uptake solution),≤ 15 min
same,time until urate uptake reaches steady state,rat VSMCs [3]; polarized conditions (HEPES-physiological saline solution),≤ 30 min
same,3H-thymidine uptake level by rat VSMCs,rat VSMCs [2]; 3 mg/dL uric acid,increased
same,competition between 14C-urate and cold urate for uptake by rat VSMCs,"rat VSMCs [1]; 0.1, 1, 5, 10 or 50 mg/dL cold urate",more effectively competed
